The results in this text go back to patent US7993884B2, “Beta-xylosidase for conversion of plant cell wall carbohydrates to simple sugars” (The United States of America as represented by the …, priority 2006, dated 2011).

SMILES strings stand for the structures. Where two headings read alike, the source gives them in different places.

What is called Km is the concentration of substrate that gives half-maximal velocity. A word on the Ki: it is the dissociation constant of the complex between target and ligand, obtained from inhibition or displacement.

The target of assay [1] is T1, SXA (Selenomonas ruminantium, UniProt O52575). As to conditions: 100 mM sodium phosphate, pH 7.0, 25° C., not well determined.
Assay [2] has as its target T1, SXA. Nature of the assay: pH stability of SXA and protection from low pH inactivation at pH 4.0 by monosaccharides. As to conditions: pH 4.0, 25° C.
Assay [3] addresses T1, SXA. As to conditions: pH 5.3, 55° C.; for KI (inactivation): read-out: Ki, dissociation constant from protection against thermal inactivation, kobs fitted to equation 4. The protocol: Initial rates were determined by monitoring reactions continuously at 400 nM for 0.3 min. […] Relative activity remaining data were fitted to equation 3, which describes a first order decay: A is the relative activity remaining at varied times of preincubation, A0 is the relative activity remaining at time zero of the preincubation, kobs is the first order rate constant, and t is the time of preincubation. Apparent affinities for D-xylose and D-glucose were determined by fitting kobs values from the monosaccharide protection studies to equation 4 where kobs is the observed first order rate constant for the decay, k0 is the first order rate constant in the absence of ligand (e.g., D-xylose), I is the ligand concentration in the preincubation mixture, and Ki is the dissociation constant of ligand from the enzyme-ligand complex.
Ligand protection studies contained varied concentrations of D-xylose or D-glucose in the pH 5.3 preincubation buffer at 55° C.

Assay [4] concerns the target T1, SXA. Nature of the assay: biochemical. As to conditions: inhibition of SXA-catalyzed hydrolysis of 4NPX, I=0.3 M, competitive. The protocol:
Reactions were monitored continuously for 0.3 min at 400 nm to determine initial rates. Initial-rate data were fitted to equation 6, where v is the initial rate, kcat is the rate of the reaction when saturated with substrate, S is the substrate concentration, Km is the Michaelis constant, I is the inhibitor concentration (e.g., D-glucose), and Ki is the dissociation constant of inhibitor from the enzyme-inhibitor complex.

For assay [5], the target named is β-D-xylosidase/α-L-arabinofuranosidase (Selenomonas ruminantium, UniProt O52575). Nature of the assay: Inhibition of the enzyme by monosaccharides and ethanol (detailed description). It is filed as biochemical, Selenomonas ruminantium GA192.
The target in assay [6] is T1, SXA. Nature of the assay: biochemical. Conditions: Ki^D-xylose, inhibition of SXA-catalyzed hydrolysis of 4NPA.
The target of assay [7] is T1, SXA. Nature of the assay: biochemical. Conditions: pH 5.3, 25° C.
The target in assay [8] is T1, SXA. Nature of the assay: SXA-catalyzed hydrolysis of 4NP-glycoside substrates, initial rates (Methods A and B).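 Further: initial rates from 4-nitrophenol release, tracked by absorbance over roughly 0.3 min and converted using product-minus-substrate extinction differences, in 1 mL mixtures started by enzyme addition.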 In kind it is biochemical. Conditions: read-out: Ki(xylose).

As for `O=[N+]([O-])c1ccc(O[C@@H]2OC[C@@H](O[C@@H]3OC[C@@H](O)[C@H](O)[C@H]3O)[C@H](O)[C@H]2O)cc1` [4NPX2, 4-Nitrophenyl-β-D-xylobioside], in assay [1], the “kcat (4NPX2 to 4NPX + D-xylose)” value was 50.5 ± 25.7 s⁻¹. The Km in assay [1] (read-out: Km (4NPX2 to 4NPX + D-xylose)) came to 690 ± 430 µM.
With `O=C[C@H](O)[C@@H](O)[C@H](O)[C@H](O)CO` [D-glucose], the “kobs of SXA inactivation in presence of monosaccharide” value (“kobs of SXA inactivation” below) in assay [2] (234 mM) was determined as 0.0210 ± 0.0016 min⁻¹; in assay [2] (467 mM), 0.0124 ± 0.0007 min⁻¹; in assay [3] (93.5 mM), 0.00949 ± 0.00069 min⁻¹; in assay [3] (187 mM), 0.00588 ± 0.00077 min⁻¹; in assay [3] (280 mM) it was 0.00445 ± 0.00081 min⁻¹; in assay [3] (374 mM), 0.00336 ± 0.00095 min⁻¹. For the same compound, the KI (inactivation) in assay [3] was found to be 56.1 ± 0.8 mM. The Ki in assay [4] (pH 5.3, 25° C.) turned out to be 79 ± 2.3 mM; in assay [4] (pH 7.0, 25° C.) it was 34.5 ± 0.7 mM; in assay [4] (pH 9.0, 25° C.), 18.7 ± 0.6 mM; in assay [5], 27 ± 0.4 mM.
On to `O=C[C@H](O)[C@@H](O)[C@H](O)CO` [D-xylose], for which the Ki came out at 5.15 ± 0.08 mM in assay [6] (D-xylose α:β 1:2.5, pH 7.0 (100 mM sodium phosphate, I=0.3 M), 25° C.); 4.97 ± 0.05 mM in assay [6] (D-xylose α:β 6:1, pH 7.0 (100 mM sodium phosphate, I=0.3 M), 25° C.); 11.8 ± 0.3 mM in assay [6] (D-xylose α:β ratio of 1:2.5, pH 5.3, 25° C., competitive); 11.9 ± 0.3 mM in assay [6] (D-xylose α:β ratio of 6:1, pH 5.3, 25° C., competitive); 43.5 ± 1.1 mM in assay [4] (pH 4.3, 25° C.); 7.62 ± 0.26 mM in assay [4] (pH 5.3, 25° C.). For the same compound, the Ki in assay [4] (pH 7.0, 25° C.) worked out at 3.82 ± 0.06 mM; in assay [4] (pH 9.0, 25° C.) it was 3.21 ± 0.14 mM; in assay [7] (Ki^D-xylose, inhibition of SXA-catalyzed hydrolysis of 4NPX, Eq. 3 noncompetitive (mixed), D-xylose α:β 1:2.5) it was 9.63 ± 0.3 mM; in assay [7] (Kis^D-xylose·4NPX, Eq. 3), 15.9 ± 2.1 mM; in assay [8], 7.4 mM; in assay [5] (read-out: Ki), 4.2 ± 0.1 mM. For the same compound, the “kobs of SXA inactivation” value is 0.0335 ± 0.0008 min⁻¹ in assay [2] (46.7 mM); 0.0186 ± 0.0004 min⁻¹ in assay [2] (93.5 mM); 0.00614 ± 0.00036 min⁻¹ in assay [2] (280 mM); 0.0132 ± 0.0010 min⁻¹ in assay [3] (18.7 mM); 0.00649 ± 0.00087 min⁻¹ in assay [3] (46.7 mM); 0.00326 ± 0.00056 min⁻¹ in assay [3] (93.5 mM). Besides, the “kobs of SXA inactivation” value in assay [3] (280 mM) came to 0.000917 ± 0.00033 min⁻¹. Besides, the KI (inactivation) in assay [2] (read-out: Ki, dissociation constant from protection against low pH inactivation, kobs fitted to equation 4) was found to be 31.7 ± 2.8 mM; in assay [3], 17.6 ± 1.8 mM.
